Reference: patent publication EP0672419A1, “BLOOD PRESSURE REGULATOR” (Asahi Kasei Kogyo Kabushiki Kaisha, priority 1991, dated 1995)

Key:
adult mongrel dogs [1] = assay: Induced hypotension in ten halothane-anesthetized dogs, average arterial blood pressure kept at 60 mmHg for 60 min (Example 6); assay type: in vivo, dog; conditions: mean ± S.D.
Method: Adult mongrel dog, mean body weight 12.7 ± 3.1 kg, was anesthesized with pentobarbital 25 mg/kg, intratarcheally cannulated and maintained anesthetic condition by 0.87% halothane-oxygen (1 MAC, minimum anesthetic concentration). Respiration was controlled, by using respirator (Harvard Corp., Model 613E ) at Paco₂ 35±5 mmHg.
Catheters were introduced to right femoral vein and artery for monitering arterial blood pressure, arterial blood gas analysis and infusion, and left cardiac catheter was introduced to left femoral […] to monitor left ventricular pressure. The changes in left ventricular pressure were differentiated continuously using a pressure processor (Nihon Koden Co., EQ-601G) to measure a maximum left ventricular systolic ratio (LV dp/dt max). The active ingredient of the present invention was administered to left femoral vein. Pulmonary arterial catheter (7F, Swan-Ganz® catheter) was introduced through right external jugular vein to monitor pulmonary artery pressure (PAP), paulmonary arterial wedge pressure (pulmonary capillary wedge pressure, PCWP) and cardiac output (CO). Pressure was monitored by using disporsable pressure monitoring kit (Gould Corp.), and electrocardiogram, arteriala pressure, left ventricle pressure (LVP) and maximum left ventricular systolic ratio (LV dp/dt max) were monitored by polygraph (Nihon Koden Co.) . Cardiac output (CO) was measured by thermal dilution method using cardiac output monitor (Nihon Koden Co Model MTC6210). Blood gas analysis was made by using automatic blood gas analyser (Radiometer Corp. ABL3). Mean artery pressure (MAP), cardiac index(CI) stroke volume index (SI), systemic vascular resistance (SVR), pulmonary vascular resistance (PVR), left ventricle stroke work index (LVSWI) and coronary perfusion pressure (CPP) were calculated by standard calculation equations, respectively.
To maintain low blood pressure, the active ingredient was intraveneously administered for 60 minutes with maintaining maximum dose at 40 µg/kg and adjusting to maintain mean arteraial pressure at 50 mmHg. Physiological saline was used for maintenance infusion and administered in combination with the active ingredient at 7 ml/kg/hr. At blood sampling two fold volume of hydroxyethylstarch (6-HES) was supplementary administered. Body temperature was maintained at 37 ± 1°C by covering with blanket.
Example 5 was repeated by substantially almost same manner using ten adult mongrel dogs, mean body weight 14.7±2.1 kg, applying same anesthetic condition with maintaining artificially hypotensive with average arterial blood pressure at 60 mmHg for 60 min., and administering the active ingredient desalanyl-deamino-c-CGRP.
A value at time more than 60 minutes passed after completing the start of the experiment and stabilizing a depth of anesthesia and blood flow, was set as control (S₁). Monitorings were performed at 30 min. and 60 min. under reduced blood pressure in induced hypotension, and at 10 min. and 30 min. after terminating the reduced blood pressure in induced hypotension (after stopping administration), for totally five points of time.
Results are shown by mean ± S.D.
Amount of the active ingredient for maintaining average arterial blood pressure at 60 mmHg for 60 minutes was 5 µg-115 µg/kg.

adult mongrel dogs [2] = assay: Phenylephrine-induced hypertension in four anesthetized dogs (Example 8); assay type: in vivo, dog; conditions: 10 µg/kg/hr on top of phenylephrine 10 µg/kg/min
Method: Example 6 was repeated by substantially almost same manner using four adult mongrel dogs, mean body weight 12.3±3.0 kg, applying same anesthetic condition. After setting up the experiment at more than 60 minutes passing and confirming to stabilize the depth of anesthesia and blood flow, phenylephrine (hypertensor) 10 µg/kg/min was administered.
Further after 10 minutes passed, the active ingredient, desalanyl-deamino-c-CGRP 10 µg/kg/hr was administered and at 10 min. and 20 min. after administration of the active ingredient, heart rate (HR) and mean a artery pressure (MAP) were measured.

[3] = after terminating reduced blood pressure 10 min.
[4] = after terminating reduced blood pressure 30 min.
[5] = reduced blood pressure 30 min., MAP kept at 60 mmHg
[6] = reduced blood pressure 60 min., MAP kept at 60 mmHg
[7] = after administ. of CGRP 10 min(20min)
[8] = after administ. of CGRP 20 min(30min)

desalanyl-deamino-c-CGRP
CI: Cardiac index (adult mongrel dogs [1]; [3]): 4.025±0.685 ** 1/min/m²
CO: Cardiac output (adult mongrel dogs [1]; [3]): 2.751±0.438 * 1/min
CPP: Coronary perfusion pressure (adult mongrel dogs [1]; [3]): 50.5±5.5 mmHg
CVP: Central venous pressure (adult mongrel dogs [1]; [3]): 2.9±1.5 mmHg
DAP: Diastolic artery pressure (adult mongrel dogs [1]; [3]): 59.2±5.1 mmHg
DPAP: Diastolic pulmonary artery pressure (adult mongrel dogs [1]; [3]): 11.3±5.2 mmHg
EtCO₂: Expiration terminal CO₂ pressure (adult mongrel dogs [1]; [3]): 39.5±5.8 mmHg
HR: Heart rate (adult mongrel dogs [1]; [3]): 158.8±33.8 beat/min
LV dp/dt max: maximum left ventricular systolic ratio (adult mongrel dogs [1]; [3]): 3370.0±783.2 mmHg/sec
LVEP: Left ventricle end pressure (adult mongrel dogs [1]; [3]): 0.1±0.3 mmHg
LVP: Left ventricle pressure (adult mongrel dogs [1]; [3]): 119.5±16.3 mmHg
LVSWI: Left ventricle stroke work index (adult mongrel dogs [1]; [3]): 23.970±6.998 g.m/beat/m²
MAP: Mean artery pressure (adult mongrel dogs [1]; [3]): 75.7±4.3 mmHg
MPAP: Mean pulmonary artery pressure (adult mongrel dogs [1]; [3]): 18.3±6.0 mmHg
PCWP: Pulmonary capillary wedge pressure (adult mongrel dogs [1]; [3]): 9.2±4.1 mmHg
PVR: Pulmonary vascular resistance (adult mongrel dogs [1]; [3]): 273.30±100.09 dynes · sec/cm⁵
RPP: Rate pressure products (adult mongrel dogs [1]; [3]): 14920.0±3480.0 mmHg.beat/min
RVSWI: Right ventricle stroke work index (adult mongrel dogs [1]; [3]): 5.209±1.501 g.m/beat/m²
SAP: Systolic artery pressure (adult mongrel dogs [1]; [3]): 94.4±7.2 mmHg
SI: Stroke index (adult mongrel dogs [1]; [3]): 26.300±6.720 ml/HR/m²
SPAP: Systolic pulmonary artery pressure (adult mongrel dogs [1]; [3]): 26.8±7.2 mmHg
SV: Stroke volumes (adult mongrel dogs [1]; [3]): 18.2 ± 5.63 mL/beat
SVR: Systemic vascular resistance (adult mongrel dogs [1]; [3]): 2162.0±419.2 dynes · sec/cm⁵
CI: Cardiac index (adult mongrel dogs [1]; [4]): 3.638±0.587 1/min/m²
CO: Cardiac output (adult mongrel dogs [1]; [4]): 2.487 ± 0.378 min⁻¹
CPP: Coronary perfusion pressure (adult mongrel dogs [1]; [4]): 63.5±5.3 mmHg
CVP: Central venous pressure (adult mongrel dogs [1]; [4]): 3.2±1.1 mmHg
DAP: Diastolic artery pressure (adult mongrel dogs [1]; [4]): 74.1±4.7 mmHg
DPAP: Diastolic pulmonary artery pressure (adult mongrel dogs [1]; [4]): 11.3±5.4 mmHg
EtCO₂: Expiration terminal CO₂ pressure (adult mongrel dogs [1]; [4]): 39.3±5.9 mmHg
HR: Heart rate (adult mongrel dogs [1]; [4]): 151.6±27.9 beat/min
LV dp/dt max: maximum left ventricular systolic ratio (adult mongrel dogs [1]; [4]): 3220.0±708.4 mmHg/sec
LVEP: Left ventricle end pressure (adult mongrel dogs [1]; [4]): 0.0±0.0 mmHg
LVP: Left ventricle pressure (adult mongrel dogs [1]; [4]): 132.3±20.0 mmHg
LVSWI: Left ventricle stroke work index (adult mongrel dogs [1]; [4]): 27.680±7.370 g.m/beat/m²
MAP: Mean artery pressure (adult mongrel dogs [1]; [4]): 92.8±6.3 mmHg
MPAP: Mean pulmonary artery pressure (adult mongrel dogs [1]; [4]): 18.7±6.3 mmHg
PCWP: Pulmonary capillary wedge pressure (adult mongrel dogs [1]; [4]): 10.6±4.5 mmHg
PVR: Pulmonary vascular resistance (adult mongrel dogs [1]; [4]): 269.10±109.58 dynes · sec/cm⁵
RPP: Rate pressure products (adult mongrel dogs [1]; [4]): 18100.0±3938.4 mmHg.beat/min
RVSWI: Right ventricle stroke work index (adult mongrel dogs [1]; [4]): 4.882±1.138 g.m/beat/m²
SAP: Systolic artery pressure (adult mongrel dogs [1]; [4]): 119.4±10.1 mmHg
SI: Stroke index (adult mongrel dogs [1]; [4]): 24.760±6.720 ml/HR/m²
SPAP: Systolic pulmonary artery pressure (adult mongrel dogs [1]; [4]): 27.4±7.2 mmHg
SV: Stroke volumes (adult mongrel dogs [1]; [4]): 17 ± 5.07 mL/beat
SVR: Systemic vascular resistance (adult mongrel dogs [1]; [4]): 2961.0±700.9 dynes · sec/cm⁵
CI: Cardiac index (adult mongrel dogs [1]; [5]): 3.418±0.692 1/min/m²
CO: Cardiac output (adult mongrel dogs [1]; [5]): 2.348 ± 0.528 min⁻¹
CPP: Coronary perfusion pressure (adult mongrel dogs [1]; [5]): 38.3±4.5 mmHg
CVP: Central venous pressure (adult mongrel dogs [1]; [5]): 2.5±1.1 mmHg
DAP: Diastolic artery pressure (adult mongrel dogs [1]; [5]): 47.3±2.8 mmHg
DPAP: Diastolic pulmonary artery pressure (adult mongrel dogs [1]; [5]): 9.9±4.0 mmHg
EtCO₂: Expiration terminal CO₂ pressure (adult mongrel dogs [1]; [5]): 38.5±5.6 mmHg
HR: Heart rate (adult mongrel dogs [1]; [5]): 149.3±31.7 beat/min
LV dp/dt max: maximum left ventricular systolic ratio (adult mongrel dogs [1]; [5]): 3070.0±771.8 mmHg/sec
LVEP: Left ventricle end pressure (adult mongrel dogs [1]; [5]): 0.0±0.0 mmHg
LVP: Left ventricle pressure (adult mongrel dogs [1]; [5]): 102.7±14.1 mmHg
LVSWI: Left ventricle stroke work index (adult mongrel dogs [1]; [5]): 16.906±5.750 g.m/beat/m²
MAP: Mean artery pressure (adult mongrel dogs [1]; [5]): 60.4±0.7 mmHg
MPAP: Mean pulmonary artery pressure (adult mongrel dogs [1]; [5]): 15.6±5.3 mmHg
PCWP: Pulmonary capillary wedge pressure (adult mongrel dogs [1]; [5]): 9.0±4.0 mmHg
PVR: Pulmonary vascular resistance (adult mongrel dogs [1]; [5]): 231.10±80.62 dynes · sec/cm⁵
RPP: Rate pressure products (adult mongrel dogs [1]; [5]): 11357.0±2260.5 mmHg.beat/min
RVSWI: Right ventricle stroke work index (adult mongrel dogs [1]; [5]): 3.979±1.239 g.m/beat/m²
SAP: Systolic artery pressure (adult mongrel dogs [1]; [5]): 76.5±4.8 mmHg
SI: Stroke index (adult mongrel dogs [1]; [5]): 23.810±6.952 ml/HR/m²
SPAP: Systolic pulmonary artery pressure (adult mongrel dogs [1]; [5]): 23.0±6.2 mmHg
SV: Stroke volumes (adult mongrel dogs [1]; [5]): 16.5 ± 5.78 mL/beat
SVR: Systemic vascular resistance (adult mongrel dogs [1]; [5]): 2054.0±455.6 dynes · sec/cm⁵
CI: Cardiac index (adult mongrel dogs [1]; [6]): 4.006 ±0.771 ** 1/min/m²
CO: Cardiac output (adult mongrel dogs [1]; [6]): 2.739 ±0.518 * 1/min
CPP: Coronary perfusion pressure (adult mongrel dogs [1]; [6]): 38.3±4.9 mmHg
CVP: Central venous pressure (adult mongrel dogs [1]; [6]): 2.2±1.2 mmHg
DAP: Diastolic artery pressure (adult mongrel dogs [1]; [6]): 47.7±2.6 mmHg
DPAP: Diastolic pulmonary artery pressure (adult mongrel dogs [1]; [6]): 11.3±4.9 mmHg
EtCO₂: Expiration terminal CO₂ pressure (adult mongrel dogs [1]; [6]): 39.8±6.9 mmHg
HR: Heart rate (adult mongrel dogs [1]; [6]): 154.3 ± 33.8 beat/min
LV dp/dt max: maximum left ventricular systolic ratio (adult mongrel dogs [1]; [6]): 3210.0±749.0 mmHg/sec
LVEP: Left ventricle end pressure (adult mongrel dogs [1]; [6]): 0.0±0.0 mmHg
LVP: Left ventricle pressure (adult mongrel dogs [1]; [6]): 104.7±16.3 mmHg
LVSWI: Left ventricle stroke work index (adult mongrel dogs [1]; [6]): 18.949±6.280 g.m/beat/m²
MAP: Mean artery pressure (adult mongrel dogs [1]; [6]): 60.1±0.9 mmHg
MPAP: Mean pulmonary artery pressure (adult mongrel dogs [1]; [6]): 17.7±5.9 mmHg
PCWP: Pulmonary capillary wedge pressure (adult mongrel dogs [1]; [6]): 9.4±4.7 mmHg
PVR: Pulmonary vascular resistance (adult mongrel dogs [1]; [6]): 251.20±97.14 dynes · sec/cm⁵
RPP: Rate pressure products (adult mongrel dogs [1]; [6]): 11462.0±2765.1 mmHg.beat/min
RVSWI: Right ventricle stroke work index (adult mongrel dogs [1]; [6]): 5.380±1.747 g.m/beat/m²
SAP: Systolic artery pressure (adult mongrel dogs [1]; [6]): 74.4±4.9 mmHg
SI: Stroke index (adult mongrel dogs [1]; [6]): 27.030 ±7.664 ml/HR/m²
SPAP: Systolic pulmonary artery pressure (adult mongrel dogs [1]; [6]): 25.5±7.3 mmHg
SV: Stroke volumes (adult mongrel dogs [1]; [6]): 18.5 ± 5.94 mL/beat
SVR: Systemic vascular resistance (adult mongrel dogs [1]; [6]): 1748.0±409.1 dynes · sec/cm⁵
HR: Heart rate (adult mongrel dogs [2]; [7]): 103 beats/min
MAP: Mean artery pressure (adult mongrel dogs [2]; [7]): 104.8 ±2.7 mmHg
HR: Heart rate (adult mongrel dogs [2]; [8]): 104±2.8 beat/min
MAP: Mean artery pressure (adult mongrel dogs [2]; [8]): 184±4.9 mmHg
